In US7358278B2, “Cellular phosphorylation potential enhancing compositions preparation and use thereof” (priority 1994, dated 2008):
Marks after values point to notes of the source that are not given here.

Columns and labels:
rat cortical neurons = assay: Glutamate-induced delayed toxicity, neuroprotection, MTT assay; conditions: FIG. 5b
Method: Cell death (glutamate toxicity) was measured using the MTT assay.
The glutamate exposure involved treatment wit 100 micromoolar glutamate for 30 min followed by its removal. […] All data are means +1-SEM from at least three different experiments.
To study glutamate neurotoxicity, we utilized primary cultures of rat cortical neurons and used a glutamate pulse model which produces delayed neuronal death in 24 hrs. All studies were performed in Locke's medium prepared in our laboratory to avoid contribution from the vitamins and additives typically found in many commercial media.
To determine whether the protective effects of pyruvate against glutamate toxicity were due to its effect on cell metabolism, we utilized 4-hydroxycinnamate, a compound that blocks the transporter by which pyruvate enters mitochondria. While pyruvate can exert its antioxidant effects in any compartment, its utilization in energy metabolism requires its entry into mitochondria.

[1] = tested on: rat cerebral cortical astrocytes; type: cell-based; conditions: FIG. 11
Method: Astrocytes were treated with increasing amounts of the ER calcium pump inhibitor thapsigargin for 24 hrs in either Krebs buffer or MEM. Cell viability was determined using the MTT assay.
FIG. 10. Exogenous pyruvate provides protection to astrocytes from calcium overload in Krebs Buffer.
For these experiments astrocytes were cultured in either MEM or in Krebs alone or in Krebs with different aminoacid additions grouped as in FIG. 8. Aminoacids were used at 1 mM each. Following 30 min incubation with aminoacids, 15 μM thapsigargin was added to the cultures and the astrocytes cultured for another 24 hours in the presence or absence of 10 mM cinnamate, at which point cell viability was determined using the MTT assay. Cell viability is expressed as percent of that seen with MEM without thapsigargin addition. At the 15 μM thapsigargin dose, about 80% viability is seen in MEM and this is reduced to 20% by the addition of pyruvate. […]
The combination of pyruvate, nicotinamide, and creatine has synergistic benefits for cellular energy metabolism and is also cytoprotective. […] Since we had shown that pyruvate protects neurons from calcium overload induced by thapsigargin toxicity, we first determined whether endogenously produced or exogenously supplied pyruvate could protect astrocytes from calcium overload induced by thapsigargin as shown previously for GT1-7 neurons. […]

GT1-7 neurons [2] = assay: Whole cell NADH levels by NADH fluorescence in suspended cells; type: cell-based, rat; conditions: 1 mM each, 1 hour incubation, Locke's media; * significant vs Locke's medium alone P<0.05
Method: (§1) While each of these agents may have additional neuroprotective properties outside of their role in energy metabolism, our major premise is that this combination will provide neuroprotection through enhancement of brain energy levels. To assess this we monitored three different bioenergetic parameters: Whole cell NADH levels, cellular ATP levels and cellular phosphocreatine levels. GT1-7 cells or cross-chopped rat cerebral cortical slices were equilibrated in oxygenated Locke's media for 1 hour. Pyruvate, nicotinamide, or creatine were than added alone or in combination at 1 mM each. Analytes were measured after another hour of incubation. NADH was measured using its specific fluorescence properties in suspended cells and the effect of each nutrient alone and in combination on GT1-7 neuronal NADH levels is shown in table 2a. Pyruvate would be expected to raise mitochondrial NADH levels through its participation in the Krebs cycle and it indeed appears to account for all of this effect in the combination. ATP and phosphocreatine were measured via a chemiluminescent assay utilizing firefly luciferase. In viable cells, phosphocretine levels most adequately reflect cellular energy supply since cells readily convert any excess ATP into phosphocreatine.

GT1-7 neurons [3] = assay: Cellular ATP and phosphocreatine levels, chemiluminescent firefly luciferase assay; type: cell-based, rat; conditions: 1 mM each, 1 hour incubation; for ATP (% control) / CP (% control): Locke's media; for CP (% control): phosphocreatine
Method: as §1

GT1-7 cells = assay: Thapsigargin (calcium overload) toxicity, neuroprotection, MTT dye reduction assay; conditions: 20 micromolar thapsigargin, FIG. 4B
Method: GT1-7 cell were subjected to treatments and assessed for nutrient neuroprotection as described in the text. All data are means +/− SEM from at least three different experiments.
To study calcium overload toxicity, we treated cells with thapsigargin, an agent that blocks the endoplastic reticulum calcium pump and markedly elevates cytoplasmic calcium levels. […] All studies were performed in Locke's medium prepared in our laboratory to avoid contribution from the vitamins and additives typically found in many commercial media. After determining the toxin treatment dose needed to produce complete toxicity, we then treated the cells dose-dependently with pyruvate, nicotinamide (nicotinamide) and creatine, either alone or in combination along with the LD95 dose of the toxins. […] For the combination experiments, all three agents are added together and the x-axis indicates the concentration of each agent in the combination.

[4] = tested on: rat cerebral cortical slices; assay: ATP and phosphocreatine levels in cross-chopped cerebral cortical slices, firefly luciferase assay; type: cell-based; conditions: 1 mM each
Method: as §1, with “Analytes were measured after another hour of incubation.” left out, “phosphocreatine. […] The response with the combination was larger and was maintained after 6 hours of continued incubation.” for “phosphocreatine.”

SMILES | effect on glutamate toxicity alone (in words) (rat cortical neurons) | effect on the protection by pyruvate (in words) (rat cortical neurons) | effect of cinnamate on susceptibility of MEM cultured astrocytes to thapsigargin (in words) [1] | NADH fluorescence (GT1-7 neurons [2]) | CP/ATP Ratio (GT1-7 neurons [3]) | ATP (% control) (GT1-7 neurons [3]) | CP (% control) (GT1-7 neurons [3]) | protection against calcium overload (in words) (GT1-7 cells) | ATP % ctr ([4]; 1 h) | CP % ctr ([4]; 1 h) | CP/ATP Ratio ([4]; 1 h) | ATP % ctr ([4]; 6 h) | CP % ctr ([4]; 6 h) | CP/ATP Ratio ([4]; 6 h)
O=C(O)C=Cc1ccc(O)cc1 [4-hydroxycinnamate] | no significant effect on glutamate toxicity alone | prevents the protective effects of pyruvate | more susceptible to thapsigargin toxicity | – | – | – | – | – | – | – | – | – | – | –
CN(CC(=O)O)C(=N)N [Creatine, creatine] | – | – | – | 99.3 ± 2.3 | 115.2 | 42 + 14.2* % control | 3314.3 + 920* % control | nearly complete dose dependent protection | – | – | – | – | – | –
NC(=O)c1cccnc1 [Nicotinamide, nicotinamide] | – | – | – | 98.8 ± 2.2 | 4.3 | 48.6 ± 23.4 % control | 133.1 + 25 % control | nearly complete dose dependent protection | – | – | – | – | – | –
CC(=O)C(=O)O [Pyruvate, pyruvate] | – | – | – | 134.64 ± 9.9* | 6 | 103.5 ± 17.7 % control | 551.7 ± 193.7 % control | – | 77.7 % ctr | 233.6 % ctr | 3.1 | 143.6 % ctr | 150.6 % ctr | 1
